According to article PMC11129195, “Novel Re(I) Complexes as Potential Selective Theranostic Agents in Cancer Cells and In Vivo in Caenorhabditis elegans Tumoral Strains” (Journal of Medicinal Chemistry, 2024):

Experiments:
[1] = system: A2780 cells; assay: Mitochondrial membrane potential, JC-1 staining; assay type: cell-based, human; settings: Re9 1.25 and 2.5 μM, 24 h, antimycin A 6 h
Experimental: After the treatment period, the cells were collected and resuspended in prewarmed PBS containing JC-1 (1 μM). The cell suspension was then incubated for 30 min at 37 °C. Following the incubation, the cells were washed twice with PBS and immediately analyzed using a flow cytometer (FACSCAlibur Beckton Dickinson). Fluorescence measurements were performed by detecting both the monomeric (emission at 530 ± 30 nm; green) and aggregated (emission at 585 ± 30 nm; red) forms of JC-1 upon excitation at 488 nm. For each sample, a total of 10,000 events were acquired during the analysis.

[2] = system: HeLa; assay: MTT antiproliferative activity in HeLa cells; assay type: cell-based, human; settings: MTT test, 48 h of treatment
Experimental: (§1) Human ovarian carcinoma cell lines (A2780) were cultured in RPMI-1640 medium, while the human cervix adenocarcinoma cell line (HeLa), tumor breast cancer cell line, and nontumorigenic buffalo green monkey cells (BGM) were cultured in DMEM and EMEM (containing nonessential amino acids) medium. The cell culture media were supplemented with 10% fetal bovine serum (FBS), 1% L-glutamine, and 1% penicillin/streptomycin. The cells were maintained in a humidified incubator at 37 °C with a 5% CO2 atmosphere and subcultured 2–3 times a week, each with an appropriate density for its specific cell line. Prior to the experiments, the cell lines were confirmed to be free from mycoplasma contamination using Hoechst DNA staining standard procedures. During cell-based assays, the maximum amount of dimethyl sulfoxide (DMSO) added as a solvent for treatment was limited to 0.4% (v/v) to avoid any potential vehicle-induced toxicity to the cells. Cells were cultured in 96-well plates and allowed to reach confluence. The tested compounds were dissolved in DMSO at a maximum concentration of 0.4% (v/v) and immediately diluted with fresh media. The cells were then incubated with varying concentrations of the Re1–Re9 for 48 h at 37 °C. […] The absorbance at 570 nm was measured using a microplate reader (FLUOstar Omega).

[3] = system: A2780; assay: MTT antiproliferative activity in A2780 cells; assay type: cell-based, human; settings: MTT test, 48 h of treatment
Experimental: as §1

[4] = system: BGM; assay: MTT test in nontumorigenic BGM cells; assay type: cell-based, buffalo green monkey; settings: 48 h of treatment, normal cells
Experimental: as §1

[5] = system: A2780 cells; assay: Scanning electron microscopy of cell morphology; assay type: cell-based, human; settings: A2780, 24 h
Experimental: A2780 cells were treated with CDDP and Re9 for 24 h. Cells then were fixed with 4% PFA fix solution for 30 min and washed with PBS three times. Sample were dehydrated through a graded series of ethanol (30, 50, 70, 95, and 100%), dried by the tertiary butanol method, and then imaged with a SEM operating at 20.0 kV.

[6] = system: A2780 cells; assay: Annexin V-FITC/PI dual staining, flow cytometry; assay type: cell-based, human; settings: 10 μM, 24 h
Experimental: The annexin V/PI assay was performed following the instructions provided by the manufacturer (Roche). A2780 cells were seeded in 12-well plates at a density of 3 × 10^5 cells/well and incubated overnight. […] After the treatment, the cells were collected and stained with annexin V and PI, following the procedure mentioned earlier. The staining was carried out at room temperature for 15 min in the absence of light, and the samples were immediately analyzed using flow cytometry (FACSCalibur Beckton Dickinson) with an excitation wavelength of 488 nm. The absorbance at 488 nm of compound Re9 was considered negligible. The data obtained from the assay were analyzed using FlowJo Software (TreeStar).

[7] = system: A2780 cells; assay: DNA damage by pH2AX staining, flow cytometry; assay type: cell-based, human; settings: A2780, 24 h
Experimental: DNA damage was evaluated by flow cytometry in A2780 cells. […] Cells were then collected by trypsinization, washed with PBS, and fixed in 200 μL 0.2% PFA for 5 min. After fixation, cells were pelleted, suspended in a 3% FBS solution containing anti phospho-H2AX ([…]) FITC-conjugated monoclonal antibody (CR55T33, eBioscience) at a concentration of 0.6 μg/mL, and incubated for 2 h at room temperature in the dark. Analysis of stained cells was carried out using a Becton Dickinson FACSCalibur flow cytometer with 10,000 acquisitions per sample, registering the FL1-H channel (λexc = 488 nm). Two independent experiments, each with n = 2, were conducted.

[8] = system: C. elegans strain MT2124; assay type: in vivo, Caenorhabditis elegans
Source text: Caenorhabditis elegans strains JK1466 [gld-1(q485)/dpy-5(e61) unc-13(e51)] and MT2124 [let-60(n1046)] were kindly donated by the Caenorhabditis Genetic Center (CGC, Saint Paul, Minnesota, United States), which is funded by the “NIH Office of Research Infrastructure Programs” (P40 OD010440). The strains were maintained and cultured following the protocols established by Stiernagle.[78]−[80] Synchronous cohorts of C. elegans prepared using the bleach method were used in all the assays.
MT2124 (Muv phenotype) L1 larvae were incubated for 72 h at 20 °C in S basal medium with different concentrations of Re9 (0.1–150 μM) supplemented with E. coli OP50. Antitumoral evaluation was performed following the protocol described by Medina and coauthors with modifications.[81] Ten microliters of a suspension containing young adult nematodes were place in a microscope slide along with 10 μL of sodium azide to reduce its movement. Images of whole worms were taken at 10× magnification using the bright-field microscope. The animals were classified as multivulva (MT) if they had more than one vulva protruding from the […] (Figure 12B) or wild-type if they only had one (WT). Then, the percentage of multivulva animals were calculated with eq 1. [drawing 1] 1
Additionally, the number of vulvas of the multivulva animals were counted. Two independent assays were performed with n ≥ 25 and the statistical significance was estimated by the ANOVA test.

[9] = system: C. elegans strain JK1466; set-up: method as in earlier work; settings: ref "Recent studies"; cited from earlier work
[10] = system: wild-type C. elegans; set-up: method as in PMID 29752286; settings: 100 μM, cited from earlier work

Structure (SMILES)	mitochondrial membrane potential (MMP) levels [1]	IC50 [2] [µM]	IC50 [3] [µM]	IC50 [4] [µM]	cell death type from SEM morphology [5]	Q2 cells (annexin V+/PI+, late apoptotic or pyroptotic) [6] [%]	Q3 cells (annexin V+/PI–, early apoptotic) [6] [%]	DNA damage (pH2AX staining) [7]	reduction of MT phenotypic incidence ([8]; 50 μM) [%]	reduction of the number of vulvas ([8]; 50 μM) [%]	MT (multivulva animals) ([8]; 50 μM, 72 h) [%]	WT (wild-type nematodes) ([8]; 50 μM, 72 h) [%]	n° vulvas ([8]; 50 μM, multivulva phenotype nematodes)	effect of concentrations above 50 μM on the nematodes ([8]; in vivo)	reduction of tumor size [9] [%]	progeny, share of the expected brood ([10]; L4 animals) [%]	reduction of animal size ([10]; wild-type larvae, 48 h) [%]	development stage ([10]; wild-type, 48 h)
CCCCCC[C@H]1C(=O)O[C@H](C)[C@H](NC(=O)c2cccc(NC=O)c2O)C(=O)O[C@@H](C)[C@@H]1OC(=O)CC(C)C [antimycin A, Antimycin A]	significant decrease in MMP levels																	
N.N.[Cl][Pt][Cl] [cisplatin]		23.3 ± 2	2.9 ± 0.4	6.8 ± 0.9	apoptosis	16.9	13.8	significantly contributed to the induction of DNA damage	58.2	52	34.62	65.38	1.40	developmental arrest	48	10	75	L2 stage
